For orientation: EC50 means the midpoint of the concentration-response curve.

Molecules are shown by their SMILES. Numbered stars: 1 amine (or outer) side, 2 acyl side, 3 side chain; on linkers, the order of the positions; unused ones are H or OH. Bridge positions count the residues as written; N and C are the ends. Square brackets hold non-standard residues; d marks the D form. Side chains are listed from the residue outwards. Peptide text beside a SMILES is read from it. * marks the point of attachment. C20 diacid = O=C(O)CCCCCCCCCCCCCCCCCCC(=O)*; C18 diacid = O=C(O)CCCCCCCCCCCCCCCCC(=O)*; γGlu = O=C(O)[C@H](CCC(=O)[*:2])N[*:1]; Hyp = O=C(O)[C@@H]1C[C@@H](O)CN1; AEEA = NCCOCCOCC(=O)O

The target in data set [1] is T1, human amylin receptor (Homo sapiens, UniProt O60896+P30988).
T1 construct: host or cells: CHO-K1/Ga15/AMY3 cells, further stably transfected with a CRE-luciferase plasmid
T1 sequence (P30988 25-474): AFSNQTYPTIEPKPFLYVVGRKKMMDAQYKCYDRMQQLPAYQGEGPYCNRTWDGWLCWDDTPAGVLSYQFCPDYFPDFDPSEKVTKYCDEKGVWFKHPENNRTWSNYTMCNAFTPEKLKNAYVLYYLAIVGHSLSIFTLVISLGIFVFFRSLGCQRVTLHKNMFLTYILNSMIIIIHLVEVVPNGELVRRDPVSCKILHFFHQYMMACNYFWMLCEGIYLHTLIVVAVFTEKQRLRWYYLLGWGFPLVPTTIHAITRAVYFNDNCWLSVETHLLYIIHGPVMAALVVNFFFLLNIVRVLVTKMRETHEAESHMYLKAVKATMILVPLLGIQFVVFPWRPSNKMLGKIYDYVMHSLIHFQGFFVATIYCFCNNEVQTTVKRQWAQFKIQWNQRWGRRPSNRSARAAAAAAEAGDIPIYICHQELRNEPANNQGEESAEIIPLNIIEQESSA
T1 sequence (O60896 24-148 partner): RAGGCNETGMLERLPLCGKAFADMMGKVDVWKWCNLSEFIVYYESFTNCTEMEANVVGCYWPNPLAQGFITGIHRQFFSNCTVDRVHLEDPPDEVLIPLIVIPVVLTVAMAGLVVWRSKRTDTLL
Briefly: Luciferase assay of amylin derivatives in amylin receptor/CRE-luc CHO cell line. It counts as cell-based. The settings on record: CHO-K1/Ga15/AMY3 CRE-luc cells, 24 hours incubation, F12 medium containing 10% FBS; read-out: EC50.
Experimental: The experiment was intended to detect the activity or efficacy of the amylin derivatives on a human amylin receptor in vitro by luciferase assay.
50 μL of growth medium (F12 medium containing 10% FBS) was added into each well of a white 96-well plate, and the stably transfected amylin/CRE-lue CHO cells were inoculated into the white 96-well plate at a density of about 20,000 cells/well for activity determination.

The nature of data set [2]: Freeze-thaw stability of derivatives (freeze-thaw yield by liquid chromatography). Type of data set: physicochemical. The settings on record: for Dissolution property: appearance after dissolution at 0.2 mg/ml in 20 mM phosphate buffer solution (PB) (pH 7.0); for Freeze storage property: appearance after overnight storage at −20° C. and thawing to room temperature, 0.2 mg/ml in 20 mM PB (pH 7.0); for Freeze storage yield: concentration of polypeptide after freezing and thawing / concentration before, by liquid chromatography, −20° C. overnight. Put shortly: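 Lyophilised peptide derivative dissolved at 0.2 mg/ml in 20 mM phosphate buffer, pH 7.0, frozen overnight at −20° C, then thawed at room temperature. Peptide concentration before and after freeze-thaw measured by reversed-phase HPLC on centrifuged supernatant; yield = post-thaw/pre-thaw concentration.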

Turning to `CC[C@H](C)[C@H](NC(=O)[C@@H]1CCCN1C(=O)CNC(=O)[C@H](CC(C)C)NC(=O)[C@H](CC(N)=O)NC(=O)[C@H](CCCCNC(=O)COCCOCCNC(=O)COCCOCCNC(=O)CC[C@H](NC(=O)CCCCCCCCCCCCCCCCCCC(=O)O)C(=O)O)NC(=O)[C@H](CO)NC(=O)[C@H](CO)NC(=O)[C@H](Cc1c[nH]cn1)NC(=O)[C@H](CCCNC(=N)N)NC(=O)[C@H](CC(C)C)NC(=O)[C@H](Cc1ccccc1)NC(=O)[C@H](CCC(=O)O)NC(=O)[C@H](C)NC(=O)[C@H](CC(C)C)NC(=O)[C@H](CCCNC(=N)N)NC(=O)[C@H](CCC(N)=O)NC(=O)[C@@H](NC(=O)[C@H](C)NC(=O)[C@@H]1CSSC[C@H](NC(=O)[C@@H](N)CCCNC(=N)N)C(=O)N[C@@H](CC(N)=O)C(=O)N[C@@H]([C@@H](C)O)C(=O)N[C@@H](C)C(=O)N[C@@H]([C@@H](C)O)C(=O)N1)[C@@H](C)O)C(=O)N[C@@H](CC(C)C)C(=O)N1CCC[C@H]1C(=O)N1CCC[C@H]1C(=O)N[C@H](C(=O)N[C@@H](CC(N)=O)C(=O)N[C@H](C(=O)NCC(=O)N[C@@H](CO)C(=O)N[C@@H](CC(N)=O)C(=O)N[C@H](C(=O)N1CCC[C@H]1C(N)=O)[C@@H](C)O)C(C)C)[C@@H](C)O` [PD001] (H-RCNTATCATQRLAEFLRHSSK([AEEA-AEEA-γGlu-C20 diacid])NLGPILPPTNVGSNTP-NH2; disulfide 2-7 (inferred); N-terminus assumed), the EC50 in data set [1] is 0.042 nM. In addition, in data set [2], the Dissolution property entry is “Clear” and the Freeze storage property entry is listed as “Clear”.
Consider `CC[C@H](C)[C@H](NC(=O)[C@@H]1CCCN1C(=O)[C@H](CCCCNC(=O)CC[C@H](NC(=O)CCCCCCCCCCCCCCCCCCC(=O)O)C(=O)O)NC(=O)[C@H](CC(C)C)NC(=O)[C@H](CC(N)=O)NC(=O)[C@H](CC(N)=O)NC(=O)[C@H](CO)NC(=O)[C@H](CO)NC(=O)[C@H](Cc1c[nH]cn1)NC(=O)[C@H](CCCNC(=N)N)NC(=O)[C@H](CC(C)C)NC(=O)[C@H](Cc1ccccc1)NC(=O)[C@H](CCC(=O)O)NC(=O)[C@H](C)NC(=O)[C@H](CC(C)C)NC(=O)[C@H](CCCNC(=N)N)NC(=O)[C@H](CCC(N)=O)NC(=O)[C@@H](NC(=O)[C@H](C)NC(=O)[C@@H]1CSSC[C@H](NC(=O)[C@@H](N)CCCNC(=N)N)C(=O)N[C@@H](CC(N)=O)C(=O)N[C@@H]([C@@H](C)O)C(=O)N[C@@H](C)C(=O)N[C@@H]([C@@H](C)O)C(=O)N1)[C@@H](C)O)C(=O)N[C@@H](CC(C)C)C(=O)N1CCC[C@H]1C(=O)N1CCC[C@H]1C(=O)N[C@H](C(=O)N[C@@H](CC(N)=O)C(=O)N[C@H](C(=O)NCC(=O)N[C@@H](CO)C(=O)N[C@@H](CC(N)=O)C(=O)N[C@H](C(=O)N1CCC[C@H]1C(N)=O)[C@@H](C)O)C(C)C)[C@@H](C)O` [PD047] (H-RCNTATCATQRLAEFLRHSSNNLK([γGlu-C20 diacid])PILPPTNVGSNTP-NH2; disulfide 2-7 (inferred); N-terminus assumed), for which the EC50 in data set [1] amounted to 0.073 nM. For the same molecule, the Freeze storage yield in data set [2] came out at 0.00%.
`CC[C@H](C)[C@H](NC(=O)[C@@H]1CCCN1C(=O)[C@H](CCCCNC(=O)CC[C@H](NC(=O)CCCCCCCCCCCCCCCCCCC(=O)O)C(=O)O)NC(=O)[C@H](CC(C)C)NC(=O)[C@H](CC(N)=O)NC(=O)[C@H](CC(N)=O)NC(=O)[C@H](CO)NC(=O)[C@H](CO)NC(=O)[C@H](Cc1c[nH]cn1)NC(=O)[C@H](CCCNC(=N)N)NC(=O)[C@H](CC(C)C)NC(=O)[C@H](Cc1ccccc1)NC(=O)[C@H](CCC(=O)O)NC(=O)[C@H](C)NC(=O)[C@H](CC(C)C)NC(=O)[C@H](CCCNC(=N)N)NC(=O)[C@H](CCC(N)=O)NC(=O)[C@@H](NC(=O)[C@H](C)NC(=O)[C@@H]1CSSC[C@H](NC(=O)[C@@H](N)CCCNC(=N)N)C(=O)N[C@@H](CC(N)=O)C(=O)N[C@@H]([C@@H](C)O)C(=O)N[C@@H](C)C(=O)N[C@@H]([C@@H](C)O)C(=O)N1)[C@@H](C)O)C(=O)N[C@@H](CC(C)C)C(=O)N1CCC[C@H]1C(=O)N1CCC[C@H]1C(=O)N[C@H](C(=O)N[C@@H](CC(N)=O)C(=O)N[C@H](C(=O)NCC(=O)N[C@@H](CO)C(=O)N[C@@H](CC(N)=O)C(=O)N[C@H](C(=O)N1CCC[C@H]1C(N)=O)[C@@H](C)O)C(C)C)[C@@H](C)O` [PD009] (H-RCNTATCATQRLAEFLRHSSNNLK([γGlu-C20 diacid])PILPPTNVGSNTP-NH2; disulfide 2-7 (inferred)): the 50% effective concentration (EC50) in data set [1] amounted to 0.067 nM. Besides, in data set [2], the Dissolution property result is “Clear” and the Freeze storage property result was “Clear”.
For the molecule `CC[C@H](C)[C@H](NC(=O)[C@@H]1CCCN1C(=O)CNC(=O)[C@H](CC(C)C)NC(=O)[C@H](CC(N)=O)NC(=O)[C@H](CC(N)=O)NC(=O)[C@H](CCCCNC(=O)CC[C@H](NC(=O)CCCCCCCCCCCCCCCCCCC(=O)O)C(=O)O)NC(=O)[C@H](CO)NC(=O)[C@H](Cc1c[nH]cn1)NC(=O)[C@H](CCCNC(=N)N)NC(=O)[C@H](CC(C)C)NC(=O)[C@H](Cc1ccccc1)NC(=O)[C@H](CC(=O)O)NC(=O)[C@H](C)NC(=O)[C@H](CC(C)C)NC(=O)[C@H](CCCNC(=N)N)NC(=O)[C@H](CCC(N)=O)NC(=O)[C@@H](NC(=O)[C@H](C)NC(=O)[C@@H]1CSSC[C@H](NC(=O)[C@@H](N)CCCNC(=N)N)C(=O)N[C@@H](CC(N)=O)C(=O)N[C@@H]([C@@H](C)O)C(=O)N[C@@H](C)C(=O)N[C@@H]([C@@H](C)O)C(=O)N1)[C@@H](C)O)C(=O)N[C@@H](CC(C)C)C(=O)N1CCC[C@H]1C(=O)N1CCC[C@H]1C(=O)N[C@H](C(=O)N[C@@H](CC(N)=O)C(=O)N[C@H](C(=O)NCC(=O)N[C@@H](CO)C(=O)N[C@@H](CC(N)=O)C(=O)N[C@H](C(=O)N1C[C@H](O)C[C@H]1C(N)=O)[C@@H](C)O)C(C)C)[C@@H](C)O` [PD094] (H-RCNTATCATQRLADFLRHSK([γGlu-C20 diacid])NNLGPILPPTNVGSNT[Hyp]-NH2; disulfide 2-7 (inferred); N-terminus assumed), the EC50 in data set [1] worked out at 0.034 nM. Further, in data set [2], the Dissolution property entry is “Clear”, the Freeze storage property result was “Clear” and the Freeze storage yield came out at 102.94%.
Turning to `CC[C@H](C)[C@H](NC(=O)[C@@H]1CCCN1C(=O)CNC(=O)[C@H](CC(C)C)NC(=O)[C@H](CCCCNC(=O)CC[C@H](NC(=O)CCCCCCCCCCCCCCCCC(=O)O)C(=O)O)NC(=O)[C@H](CC(N)=O)NC(=O)[C@H](CO)NC(=O)[C@H](CO)NC(=O)[C@H](Cc1c[nH]cn1)NC(=O)[C@H](CCCNC(=N)N)NC(=O)[C@H](CC(C)C)NC(=O)[C@H](Cc1ccccc1)NC(=O)[C@H](CC(=O)O)NC(=O)[C@H](C)NC(=O)[C@H](CC(C)C)NC(=O)[C@H](CCCNC(=N)N)NC(=O)[C@H](CCC(N)=O)NC(=O)[C@@H](NC(=O)[C@H](C)NC(=O)[C@@H]1CSSC[C@H](NC(=O)[C@@H](N)CCCNC(=N)N)C(=O)N[C@@H](CC(N)=O)C(=O)N[C@@H]([C@@H](C)O)C(=O)N[C@@H](C)C(=O)N[C@@H]([C@@H](C)O)C(=O)N1)[C@@H](C)O)C(=O)N[C@@H](CC(C)C)C(=O)N1CCC[C@H]1C(=O)N1CCC[C@H]1C(=O)N[C@H](C(=O)N[C@@H](CC(N)=O)C(=O)N[C@H](C(=O)NCC(=O)N[C@@H](CO)C(=O)N[C@@H](CC(N)=O)C(=O)N[C@H](C(=O)N1C[C@H](O)C[C@H]1C(N)=O)[C@@H](C)O)C(C)C)[C@@H](C)O` [PD088] (H-RCNTATCATQRLADFLRHSSNK([γGlu-C18 diacid])LGPILPPTNVGSNT[Hyp]-NH2; disulfide 2-7 (inferred); N-terminus assumed), in data set [1], the EC50 was 0.013 nM. Besides, in data set [2], the Dissolution property result was “Clear”, the Freeze storage property result is recorded as “Clear” and the Freeze storage yield is given as 120.04%.

(Values after US20260166128A1, “HUMAN AMYLIN ANALOG, AND DERIVATIVE THEREOF AND USE THEREOF” (priority 2022, published 2026).)
